From patent US20250243171A1, “QUINAZOLINE COMPOUNDS FOR TREATMENT OF DISEASE” (Arthrosi Therapeutics, Inc., priority 2021, published 2025)

Columns and labels:
Assay in all cases: EC50 assay: Ba/F3 stable cell proliferation (CCK-8, 72 h)
Type in all cases: cell-based
Ba/F3 stable cells [1] = biological target: T1, Ba/F3 stable cells (Homo sapiens, UniProt P00533, DUP768-770, cells depend on it); settings: Ba/F3-EGFR D770-N771insSVD cells
T1 construct: EC50 Ba/F3-EGFR D770-N771insSVD; other: Ba/F3-EGFR D770-N771insSVD cells, 72 h, CCK-8
T1 sequence (P00533 with tags, fused parts or gaps DUP768-770): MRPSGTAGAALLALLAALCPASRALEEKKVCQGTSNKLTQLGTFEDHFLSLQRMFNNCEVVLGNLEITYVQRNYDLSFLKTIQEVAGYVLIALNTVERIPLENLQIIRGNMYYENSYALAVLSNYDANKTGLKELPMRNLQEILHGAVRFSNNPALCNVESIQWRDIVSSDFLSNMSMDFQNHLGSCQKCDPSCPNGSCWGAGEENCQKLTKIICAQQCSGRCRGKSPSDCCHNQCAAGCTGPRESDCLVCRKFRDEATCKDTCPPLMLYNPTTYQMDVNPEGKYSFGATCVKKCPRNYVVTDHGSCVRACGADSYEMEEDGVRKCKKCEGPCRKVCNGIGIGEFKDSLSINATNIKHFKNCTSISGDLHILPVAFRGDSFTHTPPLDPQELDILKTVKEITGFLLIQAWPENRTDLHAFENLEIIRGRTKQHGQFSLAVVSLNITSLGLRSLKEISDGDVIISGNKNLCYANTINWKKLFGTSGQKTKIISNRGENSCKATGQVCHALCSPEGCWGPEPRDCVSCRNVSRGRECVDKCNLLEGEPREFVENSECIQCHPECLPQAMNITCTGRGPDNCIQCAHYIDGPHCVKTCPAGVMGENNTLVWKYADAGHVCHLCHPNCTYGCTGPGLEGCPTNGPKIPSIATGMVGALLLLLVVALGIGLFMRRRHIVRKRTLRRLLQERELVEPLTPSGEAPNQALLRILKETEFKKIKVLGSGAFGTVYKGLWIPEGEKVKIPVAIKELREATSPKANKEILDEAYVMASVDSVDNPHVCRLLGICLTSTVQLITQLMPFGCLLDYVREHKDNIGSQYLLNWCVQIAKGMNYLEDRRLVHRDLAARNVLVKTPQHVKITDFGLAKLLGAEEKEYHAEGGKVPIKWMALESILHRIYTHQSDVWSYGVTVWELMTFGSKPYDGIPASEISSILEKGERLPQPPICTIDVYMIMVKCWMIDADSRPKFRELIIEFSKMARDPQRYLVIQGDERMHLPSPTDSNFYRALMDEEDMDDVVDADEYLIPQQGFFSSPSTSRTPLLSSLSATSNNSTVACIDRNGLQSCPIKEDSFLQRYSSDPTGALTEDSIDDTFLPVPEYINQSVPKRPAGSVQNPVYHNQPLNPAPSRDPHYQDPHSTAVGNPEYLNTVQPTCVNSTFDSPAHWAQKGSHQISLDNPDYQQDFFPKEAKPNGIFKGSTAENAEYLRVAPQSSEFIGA
Outline: (§1)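 Ba/F3 stable cells were seeded at 4,000 cells/90 μL/well in 96-well plates and held 2 h at 37° C. in 5% CO2, then given 10 μL of serially titrated compound (0.1% DMSO final). After 72 h at 37° C., CCK-8 reagent was added for 4 hours and absorbance read at 450 nm to derive EC50.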

Ba/F3 stable cells [2] = biological target: T2, Ba/F3 stable cells (Homo sapiens, UniProt P00533, DUP771-773, cells depend on it); settings: Ba/F3-EGFR H773-V774insNPH cells
T2 construct: EC50 Ba/F3-EGFR H773-V774insNPH; other: Ba/F3-EGFR H773-V774insNPH cells, 72 h, CCK-8
Outline: as §1

Ba/F3 stable cells [3] = biological target: T3, Ba/F3 stable cells (Homo sapiens, UniProt P00533, T790M/L858R, cells depend on it); settings: Ba/F3-EGFR L858R-T790M cells
T3 construct: EC50 Ba/F3-EGFR L858R-T790M; other: Ba/F3-EGFR L858R-T790M cells, 72 h, CCK-8
T3 sequence (P00533 whole entry T790M/L858R): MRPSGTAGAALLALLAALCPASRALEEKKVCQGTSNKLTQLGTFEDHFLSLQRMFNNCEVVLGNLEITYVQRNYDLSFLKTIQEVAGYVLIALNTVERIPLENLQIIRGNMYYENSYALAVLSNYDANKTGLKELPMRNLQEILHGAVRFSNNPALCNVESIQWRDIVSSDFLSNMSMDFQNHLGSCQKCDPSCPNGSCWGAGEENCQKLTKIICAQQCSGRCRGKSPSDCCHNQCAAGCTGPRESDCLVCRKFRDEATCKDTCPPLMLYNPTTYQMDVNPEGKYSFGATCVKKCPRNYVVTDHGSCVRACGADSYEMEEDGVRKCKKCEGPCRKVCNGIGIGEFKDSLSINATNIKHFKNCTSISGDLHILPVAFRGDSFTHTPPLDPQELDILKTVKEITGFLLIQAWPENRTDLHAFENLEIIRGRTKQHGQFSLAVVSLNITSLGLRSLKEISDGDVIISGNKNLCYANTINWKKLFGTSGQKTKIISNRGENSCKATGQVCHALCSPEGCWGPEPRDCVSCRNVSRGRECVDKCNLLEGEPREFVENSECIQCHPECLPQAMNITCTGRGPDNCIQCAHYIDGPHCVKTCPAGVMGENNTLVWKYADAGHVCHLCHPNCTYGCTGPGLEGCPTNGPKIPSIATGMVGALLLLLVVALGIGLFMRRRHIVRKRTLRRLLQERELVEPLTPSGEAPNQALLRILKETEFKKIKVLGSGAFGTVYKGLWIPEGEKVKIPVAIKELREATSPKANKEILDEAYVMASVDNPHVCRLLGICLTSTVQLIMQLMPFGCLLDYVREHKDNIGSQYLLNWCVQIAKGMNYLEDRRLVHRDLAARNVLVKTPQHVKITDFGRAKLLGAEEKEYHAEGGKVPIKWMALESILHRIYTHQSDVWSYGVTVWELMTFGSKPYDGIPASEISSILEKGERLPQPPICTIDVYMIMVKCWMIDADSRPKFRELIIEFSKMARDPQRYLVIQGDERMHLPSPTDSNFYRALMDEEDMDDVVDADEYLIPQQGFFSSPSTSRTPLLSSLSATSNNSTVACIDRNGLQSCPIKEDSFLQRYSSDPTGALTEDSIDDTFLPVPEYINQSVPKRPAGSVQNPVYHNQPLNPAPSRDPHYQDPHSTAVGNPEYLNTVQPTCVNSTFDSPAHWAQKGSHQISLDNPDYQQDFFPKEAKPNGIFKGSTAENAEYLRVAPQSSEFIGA
Outline: as §1

Ba/F3 stable cells [4] = biological target: T4, Ba/F3 stable cells (Homo sapiens, UniProt P00533, DUP767-769, cells depend on it); settings: Ba/F3-EGFR V769-D770insASV cells
T4 construct: EC50 Ba/F3-EGFR V769-D770insASV; other: Ba/F3-EGFR V769-D770insASV cells, 72 h, CCK-8
T4 sequence (P00533 with tags, fused parts or gaps DUP767-769): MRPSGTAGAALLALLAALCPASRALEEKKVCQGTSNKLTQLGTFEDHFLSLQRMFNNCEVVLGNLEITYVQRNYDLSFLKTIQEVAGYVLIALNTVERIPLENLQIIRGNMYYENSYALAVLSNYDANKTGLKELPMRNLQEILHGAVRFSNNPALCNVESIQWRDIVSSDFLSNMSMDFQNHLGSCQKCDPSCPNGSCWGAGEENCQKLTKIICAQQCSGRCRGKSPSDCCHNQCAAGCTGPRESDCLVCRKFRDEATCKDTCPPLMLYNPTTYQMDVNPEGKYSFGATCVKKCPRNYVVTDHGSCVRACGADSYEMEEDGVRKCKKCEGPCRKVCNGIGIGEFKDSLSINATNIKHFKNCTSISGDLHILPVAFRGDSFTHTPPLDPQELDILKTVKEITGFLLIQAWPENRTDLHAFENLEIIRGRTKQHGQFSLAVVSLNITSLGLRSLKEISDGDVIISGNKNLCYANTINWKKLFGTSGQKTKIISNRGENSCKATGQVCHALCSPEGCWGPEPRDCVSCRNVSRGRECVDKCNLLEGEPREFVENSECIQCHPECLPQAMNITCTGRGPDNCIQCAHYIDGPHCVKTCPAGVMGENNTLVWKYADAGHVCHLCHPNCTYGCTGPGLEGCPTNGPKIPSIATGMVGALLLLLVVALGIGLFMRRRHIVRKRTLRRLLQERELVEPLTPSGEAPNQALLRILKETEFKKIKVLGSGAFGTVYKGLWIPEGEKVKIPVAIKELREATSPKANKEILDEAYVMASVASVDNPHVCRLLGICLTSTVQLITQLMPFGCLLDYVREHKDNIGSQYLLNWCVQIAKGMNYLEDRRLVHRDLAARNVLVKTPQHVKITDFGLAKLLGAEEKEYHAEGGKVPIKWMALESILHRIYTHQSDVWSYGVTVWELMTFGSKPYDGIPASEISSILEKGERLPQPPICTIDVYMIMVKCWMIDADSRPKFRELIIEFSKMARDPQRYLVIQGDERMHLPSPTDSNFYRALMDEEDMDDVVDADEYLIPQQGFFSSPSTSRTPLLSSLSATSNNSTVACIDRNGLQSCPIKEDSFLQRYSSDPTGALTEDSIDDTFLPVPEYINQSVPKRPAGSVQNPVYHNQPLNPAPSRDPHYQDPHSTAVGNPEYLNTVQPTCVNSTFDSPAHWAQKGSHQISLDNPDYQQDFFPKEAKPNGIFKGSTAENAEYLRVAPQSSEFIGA
Outline: as §1

Ba/F3 stable cells [5] = biological target: T5, Ba/F3 stable cells (Homo sapiens, UniProt P00533, INS763FQEA, cells depend on it); settings: Ba/F3-EGFR A763-Y764insFQEA cells
T5 construct: EC50 Ba/F3-EGFR A763-Y764insFQEA; other: Ba/F3-EGFR A763-Y764insFQEA cells, 72 h, CCK-8
Outline: as §1

Ba/F3 stable cells [6] = biological target: T6, Ba/F3 stable cells (Homo sapiens, UniProt P04626, DUP772-775, cells depend on it); settings: Ba/F3-HER2 A775-G776insYVMA cells
T6 construct: EC50 Ba/F3-HER2 A775-G776insYVMA; other: Ba/F3-HER2 A775-G776insYVMA cells, 72 h, CCK-8
T6 sequence (P04626 with tags, fused parts or gaps DUP772-775): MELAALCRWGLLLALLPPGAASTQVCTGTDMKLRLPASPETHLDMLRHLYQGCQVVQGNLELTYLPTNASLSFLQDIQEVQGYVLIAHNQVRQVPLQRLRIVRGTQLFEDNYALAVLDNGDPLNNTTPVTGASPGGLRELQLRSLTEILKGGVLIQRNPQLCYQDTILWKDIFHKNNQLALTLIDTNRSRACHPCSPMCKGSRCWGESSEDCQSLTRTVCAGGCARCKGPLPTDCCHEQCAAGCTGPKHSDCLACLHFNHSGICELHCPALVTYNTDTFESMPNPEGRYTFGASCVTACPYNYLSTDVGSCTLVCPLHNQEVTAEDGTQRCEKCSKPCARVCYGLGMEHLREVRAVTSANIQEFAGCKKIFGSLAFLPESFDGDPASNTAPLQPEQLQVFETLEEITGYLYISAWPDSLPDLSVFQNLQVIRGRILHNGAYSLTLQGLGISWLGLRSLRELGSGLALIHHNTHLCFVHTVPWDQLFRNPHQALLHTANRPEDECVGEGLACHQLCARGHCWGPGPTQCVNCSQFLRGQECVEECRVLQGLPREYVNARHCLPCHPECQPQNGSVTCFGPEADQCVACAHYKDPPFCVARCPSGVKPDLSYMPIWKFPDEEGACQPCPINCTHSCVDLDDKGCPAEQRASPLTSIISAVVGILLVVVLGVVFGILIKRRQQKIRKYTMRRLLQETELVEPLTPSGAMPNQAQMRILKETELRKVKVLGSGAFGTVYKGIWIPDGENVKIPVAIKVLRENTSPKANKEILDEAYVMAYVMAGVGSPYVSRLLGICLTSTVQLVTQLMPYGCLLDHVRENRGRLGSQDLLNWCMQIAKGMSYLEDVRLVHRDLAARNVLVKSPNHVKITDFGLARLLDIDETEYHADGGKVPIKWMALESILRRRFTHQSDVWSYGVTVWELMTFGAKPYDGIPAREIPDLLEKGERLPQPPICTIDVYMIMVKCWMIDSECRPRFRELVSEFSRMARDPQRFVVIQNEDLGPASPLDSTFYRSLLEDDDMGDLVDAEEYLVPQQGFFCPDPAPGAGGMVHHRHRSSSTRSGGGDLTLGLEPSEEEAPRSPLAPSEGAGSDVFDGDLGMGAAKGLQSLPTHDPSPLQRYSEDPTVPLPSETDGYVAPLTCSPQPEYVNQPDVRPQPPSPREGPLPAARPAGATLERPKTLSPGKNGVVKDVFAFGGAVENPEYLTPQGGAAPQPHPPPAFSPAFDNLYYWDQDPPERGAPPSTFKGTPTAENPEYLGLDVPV
Outline: as §1

Row | SMILES | EC50 (Ba/F3 stable cells [1]) [µM] | EC50 (Ba/F3 stable cells [2]) [µM] | EC50 (Ba/F3 stable cells [3]) [µM] | EC50 (Ba/F3 stable cells [4]) [µM] | EC50 (Ba/F3 stable cells [5]) [µM] | EC50 (Ba/F3 stable cells [6]) [µM]
1 | C=CC(=O)NC1CC(Oc2cc3c(Nc4ccc(F)c(Cl)c4)ncnc3cc2OC)C1 (stereo not drawn) [Compound 85, N-(3-((4-((3-chloro-4-fluorophenyl)amino)-7-methoxyquinazolin-6-yl)oxy)cyclobutyl)acrylamide] | > 1 | > 1 | > 1 | 0.2 to 1 | ≤ 0.2 | > 1
2 | C=CC(=O)N[C@H]1C[C@H](Oc2cc3c(Nc4ccc(C#N)c(Cl)c4)ncnc3cc2OC)C1 [Compound 86, N-(3-((4-((3-chloro-4-cyanophenyl)amino)-7-methoxyquinazolin-6-yl)oxy)cyclobutyl)acrylamide] | > 1 | > 1 | > 1 | > 1 | 0.2 to 1 | > 1
3 | C=CC(=O)NC1CC(Oc2cc3c(Nc4ccc(F)c(C#N)c4)ncnc3cc2OC)C1 (stereo not drawn) [Compound 87, N-(3-((4-((3-cyano-4-fluorophenyl)amino)-7-methoxyquinazolin-6-yl)oxy)cyclobutyl)acrylamide] | > 1 | > 1 | > 1 | > 1 | 0.2 to 1 | > 1
4 | C=CC(=O)NC1CC(Oc2cc3c(Nc4cccc5c4CCC5)ncnc3cc2OC)C1 (stereo not drawn) [Compound 88, N-(3-((4-((2,3-dihydro-1H-inden-4-yl)amino)-7-methoxyquinazolin-6-yl)oxy)cyclobutyl)acrylamide] | > 1 | > 1 | > 1 | > 1 | 0.2 to 1 | > 1
5 | C=CC(=O)NC1CC(Oc2cc3c(Nc4cccc5c4CCCC5)ncnc3cc2OC)C1 (stereo not drawn) [Compound 89, N-(3-((7-methoxy-4-((5,6,7,8-tetrahydronaphthalen-1-yl)amino)quinazolin-6-yl)oxy)cyclobutyl)acrylamide] | > 1 | > 1 | > 1 | > 1 | 0.2 to 1 | > 1

Continued, values first:

Row | EC50 (Ba/F3 stable cells [1]) [µM] | EC50 (Ba/F3 stable cells [2]) [µM] | EC50 (Ba/F3 stable cells [3]) [µM] | EC50 (Ba/F3 stable cells [4]) [µM] | EC50 (Ba/F3 stable cells [5]) [µM] | EC50 (Ba/F3 stable cells [6]) [µM] | SMILES
6 | > 1 | 0.2 to 1 | > 1 | ≤ 0.2 | ≤ 0.2 | > 1 | C=CC(=O)N[C@H]1CC[C@@H](Oc2cc3c(Nc4ccc(Cl)c(Cl)c4F)ncnc3cc2OC)CC1 [Compound 90, N-((1s,4s)-4-((4-((3,4-dichloro-2-fluorophenyl)amino)-7-methoxyquinazolin-6-yl)oxy)cyclohexyl)acrylamide]
7 | 0.2 to 1 | 0.2 to 1 | > 1 | 0.2 to 1 | ≤ 0.2 | 0.2 to 1 | C=CC(=O)N[C@H]1CC[C@H](Oc2cc3c(Nc4ccc(Cl)c(Cl)c4F)ncnc3cc2OC)CC1 [Compound 91, N-((1r,4r)-4-((4-((3,4-dichloro-2-fluorophenyl)amino)-7-methoxyquinazolin-6-yl)oxy)cyclohexyl)acrylamide]
8 | 0.2 to 1 | ≤ 0.2 | 0.2 to 1 | ≤ 0.2 | ≤ 0.2 | ≤ 0.2 | C=CC(=O)NC1CC(Nc2cc3c(Nc4ccc(Cl)c(Cl)c4F)ncnc3cc2OC)C1 (stereo not drawn) [Compound 92, N-(3-((4-((3,4-dichloro-2-fluorophenyl)amino)-7-methoxyquinazolin-6-yl)amino)cyclobutyl)acrylamide]
9 | > 1 | > 1 | > 1 | > 1 | ≤ 0.2 | > 1 | C=CC(=O)N1CCC(Oc2cc3c(C(=O)NCc4ccc(F)cc4)ncnc3cc2OC)CC1 [Compound 94, 6-((1-acryloylpiperidin-4-yl)oxy)-N-(4-fluorobenzyl)-7-methoxyquinazoline-4-carboxamide]
10 | > 1 | > 1 | > 1 | > 1 | > 1 | > 1 | C=CC(=O)N1CCC(Oc2cc3c(C(=O)N[C@H](C)c4ccc(F)cc4)ncnc3cc2OC)CC1 [Compound 95, (R)-6-((1-acryloylpiperidin-4-yl)oxy)-N-(1-(4-fluorophenyl)ethyl)-7-methoxyquinazoline-4-carboxamide]
